Two molecules from patent publication US6440901B1, “Calcium chloride fruit blossom thinning agent” (priority 2000, dated 2002) can be followed below.

The subject of one test is “WVC” Fuji Apples. As to conditions: for Mean Fruit Area per Limb: East Wenatchee, airblast spray at bloom; for Mean Fruit per 100 Clusters: fruit set. On the procedure: A first field trial to test the effects of calcium chloride as a bloom thinning agent was performed in an orchard located in East Wenatchee, Washington, by the Washington Tree Fruit Research Commission on a commercial block of a Fuji apple cultivar of the variety “WVC.” Two areas of the block's apples were each treated with two alternative chemical thinning compounds. Calcium chloride was used in the first area. […] A third area of the apple block was utilized as a control group and treated with water. The treatments were all performed with conventional test methodologies and procedures.
Other than the application of the thinning compounds, all three blocks were managed without differentiation. All treatments were applied utilizing standard airblast sprayers and spreader-stickers as appropriate. The experiments were in a randomized complete block design with 2 to 4 replications. […] Results of this trial are listed in TABLE 1 and shown in the graphs of FIGS. 1 and 3.

Another test deals with apples. Nature of the test: Overall observations of both field trials (damage, thinning, fruit L/D). Format: in vivo, apple. On the procedure: A series of field trials comparing the calcium chloride composition of the present invention to other alternative chemical thinners were performed to verify efficacy as a bloom thinner. The trials followed labeling recommendations and best management practices for all applications. Two of these trials are discussed as follows, but are not intended to specifically limit the invention: […]

Test [1] concerns “Lutz” Red Delicious Apples. As to conditions: for Mean Fruit Area per Limb: Azwell; for Mean Fruit per 100 Clusters: fruit set. How it is done:
A second field trial to test the effects of calcium chloride as a bloom thinning agent was performed at an orchard located in Azwell, Washington, by the Washington Tree Fruit Research Commission on a commercial block of a Red Delicious apple cultivar of the variety “Lutz.” Three areas of the block's apples were each treated with one of three alternative chemical thinning compounds. […] Calcium chloride was used in the second area and “Crocker's” lime and sulfur was used in the third area. A fourth area of the apple block was utilized as a control group and treated with water as a control. The treatments were all performed with conventional test methodologies and procedures. Other than the application of the thinning compounds, all four blocks were managed without differentiation.

For the molecule `[Ca+2].[Cl-].[Cl-]` [CaCl, calcium chloride], in the test on “WVC” Fuji Apples, the “% Flower Clusters Blanked” value was 40.0%, the “% Flower Clusters Doubled” value was determined as 12.5%, the “% Flower Clusters Singled” value came out at 45.5% and the “% Flower Clusters Tripled” value worked out at 2.0%. Also, in the test on “WVC” Fuji Apples, the “% Flower Clusters w/4+ Fruit” value was 0.1%, the “Mean Fruit Area per Limb” value was found to be 5.0 cm^2 and the “Mean Fruit per 100 Clusters” value worked out at 79. Further, in the test with apples (harvested fruit), the “impact on average fruit length over diameter (L/D) ratio” value is “minimally impacted”. In addition, the “difference in bloom thinning between treatments” value in the test on apples (with feedback on hand thinning time per tree, ATS versus calcium chloride) is “no consistent, significant differences between ATS and calcium chloride”. Moreover, in test [1], the “% Flower Clusters Blanked” value is recorded as 41.7%, the “% Flower Clusters Doubled” value turned out to be 12.7%, the “% Flower Clusters Singled” value was 44.4% and the “% Flower Clusters Tripled” value came out at 1.0%. In test [1], the “% Flower Clusters w/4+ Fruit” value worked out at 0.2%, the “Mean Fruit Area per Limb” value is recorded as 2.6 cm^2 and the “Mean Fruit per 100 Clusters” value was 73.
As to “ammonium thiosulfate [ATS, reference compound]”, in the test on “WVC” Fuji Apples, the “% Flower Clusters Blanked” value was found to be 38.2%, the “% Flower Clusters Doubled” value is recorded as 11.9%, the “% Flower Clusters Singled” value came out at 47.4% and the “% Flower Clusters Tripled” value turned out to be 1.9%. Further, in the test with “WVC” Fuji Apples, the “% Flower Clusters w/4+ Fruit” value worked out at 0.7%, the “Mean Fruit Area per Limb” value is listed as 5.8 cm^2 and the “Mean Fruit per 100 Clusters” value is on record as 84. In test [1], the “% Flower Clusters Blanked” value is 47.0%, the “% Flower Clusters Doubled” value is 12.8%, the “% Flower Clusters Singled” value is listed as 38.8% and the “% Flower Clusters Tripled” value was determined as 1.5%. In test [1], the “% Flower Clusters w/4+ Fruit” value was determined as 0.0%, the “Mean Fruit Area per Limb” value is given as 2.7 cm^2 and the “Mean Fruit per 100 Clusters” value is reported as 69.
